Measurements: patent US11905324B2, “Fluorescent fusion polypeptide capable of detecting phosphorylation of cellular membrane receptors by GRKs (G-protein receptor kinases) and/or receptor tyrosine kinases (RTKs)” (Innovative Technologies in Biological Systems SL, priority 2017, dated 2024)

Target: T1, NK1 receptor (Homo sapiens, UniProt P25103)
T1 construct: expressed in transfected cells
Assay: NK1-Red ß-ARRNomad biosensor cell line inhibition assay (co-treatment with Substance P)
Format: cell-based
Settings: co-treated with Substance P 100 nM, 24 h, BD PATHWAY 855; read-out: Ic50 (inhibition of NK1 receptor, biosensor change of localization)
Procedure: The Ic50 for L733,060 was Approx. 1.84×10^−7M after a treatment of 24 h with the agonist.

T1 sequence (P25103 whole entry, species assumed): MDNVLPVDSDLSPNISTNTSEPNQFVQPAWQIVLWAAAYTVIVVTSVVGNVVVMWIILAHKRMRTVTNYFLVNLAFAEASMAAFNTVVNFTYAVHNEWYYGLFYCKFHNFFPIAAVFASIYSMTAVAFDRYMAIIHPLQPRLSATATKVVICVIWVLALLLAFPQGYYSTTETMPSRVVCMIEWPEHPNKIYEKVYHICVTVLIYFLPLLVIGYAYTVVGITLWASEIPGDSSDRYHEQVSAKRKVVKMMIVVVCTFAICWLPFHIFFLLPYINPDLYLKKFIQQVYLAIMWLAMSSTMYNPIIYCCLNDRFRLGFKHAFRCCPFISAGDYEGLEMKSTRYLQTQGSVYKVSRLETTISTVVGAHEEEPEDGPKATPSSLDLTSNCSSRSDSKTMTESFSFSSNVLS

IC50: ~184 nM
SMILES: FC(F)(F)c1cc(CO[C@H]2CCCN[C@H]2c2ccccc2)cc(C(F)(F)F)c1 [L733,060]
